Experimental data reported in Sander's compilation of Henry's law constants (doi:10.1021/je00012a017).

What was measured:
Settings in all cases: reference: Hansen et al. (1993)
[1] = Henry solubility constant Hcp at 298.15 K (mol/(m3 Pa))
[2] = Henry solubility constant Hcp at 302 K (mol/(m3 Pa))
[3] = Henry solubility constant Hcp at 301 K (mol/(m3 Pa))

Row | SMILES | Henry solubility constant Hcp [1] | other results
1 | CC(Cl)(Cl)Cl [1,1,1-trichloroethane] | 0.00059 | –
2 | ClCC(Cl)Cl [1,1,2-trichloroethane] | 0.012 | –
3 | Cc1ccc(C)c(C)c1 [1,2,4-trimethylbenzene] | 0.0015 | –
4 | Cc1ccc(C)cc1 [1,4-dimethylbenzene] | 0.0012 | –
5 | CCCCC(C)C [2-methylhexane] | 1.9e-05 | –
6 | Cc1ccc2ccccc2c1 [2-methylnaphthalene] | 5e-05 | –
7 | CC(C)c1ccccc1 [(2-propyl)-benzene] | 0.00087 | –
8 | c1ccccc1 [benzene] | – | Henry solubility constant Hcp at 302 K [2]: 0.0015
9 | Brc1ccccc1 [bromobenzene] | 0.0053 | –
10 | C1CCCCC1 [cyclohexane] | – | Henry solubility constant Hcp at 301 K [3]: 6e-05
11 | C1CCCC1 [cyclopentane] | 6.5e-05 | –
12 | CCCCCCC [heptane] | 1.2e-05 | –
13 | Cc1ccccc1 [methylbenzene] | – | Henry solubility constant Hcp at 302 K [2]: 0.0014
14 | CC1CCCCC1 [methylcyclohexane] | 9.6e-05 | –
15 | CCCCCCCC [octane] | 3e-05 | –
16 | ClC(Cl)(Cl)Cl [tetrachloromethane] | 0.00033 | –
